Values of other authors, collected in US8440668B2, “Beta-amino heterocyclic dipeptidyl peptidase inhibitors for the treatment of type 2 diabetes” (Merck Sharp & Dohme Corp, priority 2001, dated 2013).
One block for each compound: values may come before it.

Assays:
rats = details: Transplantation 63, 1495-1500 (1997)
mouse = details: cyclophosphamide-induced neutropenia, WO 99/56753
DP-IV = target: T1, DP-IV (Homo sapiens, UniProt P27487)
T1 construct: GRF is rapidly degraded in plasma to GRF[3-44]; from tissue
T1 sequence (P27487 39-766 limits assumed): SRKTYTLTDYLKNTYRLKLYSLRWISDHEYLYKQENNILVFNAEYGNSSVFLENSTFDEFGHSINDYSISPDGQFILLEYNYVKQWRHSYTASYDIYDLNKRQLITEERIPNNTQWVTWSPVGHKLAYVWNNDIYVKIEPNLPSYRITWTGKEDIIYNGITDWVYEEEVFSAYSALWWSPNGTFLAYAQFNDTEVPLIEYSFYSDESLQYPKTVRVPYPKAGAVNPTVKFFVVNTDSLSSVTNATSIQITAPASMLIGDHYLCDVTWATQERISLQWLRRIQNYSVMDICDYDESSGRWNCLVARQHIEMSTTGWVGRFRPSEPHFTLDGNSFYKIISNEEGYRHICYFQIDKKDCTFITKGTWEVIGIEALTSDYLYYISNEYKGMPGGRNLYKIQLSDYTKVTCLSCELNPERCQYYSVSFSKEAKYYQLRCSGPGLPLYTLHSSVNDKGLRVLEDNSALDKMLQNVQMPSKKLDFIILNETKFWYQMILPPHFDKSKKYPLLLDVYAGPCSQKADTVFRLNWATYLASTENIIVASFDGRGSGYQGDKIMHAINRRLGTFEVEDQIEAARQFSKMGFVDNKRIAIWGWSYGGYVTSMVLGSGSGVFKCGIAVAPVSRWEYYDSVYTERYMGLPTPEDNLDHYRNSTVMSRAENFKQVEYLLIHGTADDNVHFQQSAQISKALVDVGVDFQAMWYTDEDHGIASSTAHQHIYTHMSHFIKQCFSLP

Compound: CC(C)N1CCC(c2ccccc2)(c2ccccc2)CC1 [Prodipine, Pro-Pro-diphenyl-phosphonate]
cardiac allograft survival (rats): double cardiac allograft survival in rats from day 7 to day 14

Compound: CC(C)[C@H](N)C(=O)N1CCC[C@H]1B(O)O [Val-Boro-Pro]
hematopoiesis (mouse): stimulated hematopoiesis

degradation of GRF in plasma to GRF[3-44] (DP-IV): prevented
Compound: diprotin A
